Measured values as given in patent publication US10660877B2 (BRISTOL-MYERS SQUIBB COMPANY, priority 2016, dated 2020).
Like-named read-outs stand apart in the source and are kept apart here.

How the values were obtained:
human TLR9 = human TLR9 (Homo sapiens (Human), UniProt Q9NR96); assay: TLR9 inhibition reporter assay (HEK-Blue cells, SEAP reporter, ODN2006 stimulation);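 also: compounds tested over 0.05 nM to 50 µM, 22 h incubation, inhibition taken as SEAP signal drop from agonist plus DMSO wells toward a known inhibitor control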
Chain of human TLR9 (Q9NR96 26-1032): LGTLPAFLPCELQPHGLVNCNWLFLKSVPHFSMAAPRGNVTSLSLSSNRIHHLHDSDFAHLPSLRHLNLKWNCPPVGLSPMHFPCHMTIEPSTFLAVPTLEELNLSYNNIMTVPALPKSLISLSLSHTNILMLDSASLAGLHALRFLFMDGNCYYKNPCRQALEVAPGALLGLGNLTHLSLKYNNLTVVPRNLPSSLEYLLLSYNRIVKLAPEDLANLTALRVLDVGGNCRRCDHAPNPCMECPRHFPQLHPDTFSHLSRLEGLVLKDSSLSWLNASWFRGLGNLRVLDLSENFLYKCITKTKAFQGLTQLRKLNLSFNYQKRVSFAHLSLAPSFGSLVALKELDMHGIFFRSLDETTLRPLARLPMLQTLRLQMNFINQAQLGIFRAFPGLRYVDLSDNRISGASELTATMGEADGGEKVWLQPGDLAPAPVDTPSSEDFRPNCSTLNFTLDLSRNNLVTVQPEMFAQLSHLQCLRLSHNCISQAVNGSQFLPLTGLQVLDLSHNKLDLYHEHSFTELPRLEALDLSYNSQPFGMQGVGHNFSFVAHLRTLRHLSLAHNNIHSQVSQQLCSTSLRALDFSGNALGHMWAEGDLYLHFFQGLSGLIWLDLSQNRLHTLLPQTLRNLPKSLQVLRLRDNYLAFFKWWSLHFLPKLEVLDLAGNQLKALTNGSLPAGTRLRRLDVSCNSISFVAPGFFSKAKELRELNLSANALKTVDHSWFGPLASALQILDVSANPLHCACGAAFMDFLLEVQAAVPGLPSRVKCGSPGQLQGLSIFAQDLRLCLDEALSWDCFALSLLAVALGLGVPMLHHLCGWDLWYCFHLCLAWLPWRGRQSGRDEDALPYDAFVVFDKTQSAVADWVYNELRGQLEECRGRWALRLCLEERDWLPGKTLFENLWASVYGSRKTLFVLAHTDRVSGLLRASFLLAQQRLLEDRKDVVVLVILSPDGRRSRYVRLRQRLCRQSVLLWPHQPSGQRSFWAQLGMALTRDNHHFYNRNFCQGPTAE

human TLR8 = human TLR8 (Homo sapiens (Human), UniProt Q9NR97); assay: TLR8 inhibition reporter assay (HEK-Blue cells, SEAP reporter, R848 stimulation);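 also: compounds tested from 0.05 nM to 50 µM, 22 h at 37 °C, SEAP measured with HEK-Blue Detection, inhibition relative to agonist plus DMSO versus a known inhibitor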
Chain of human TLR8 (Q9NR97 27-1041): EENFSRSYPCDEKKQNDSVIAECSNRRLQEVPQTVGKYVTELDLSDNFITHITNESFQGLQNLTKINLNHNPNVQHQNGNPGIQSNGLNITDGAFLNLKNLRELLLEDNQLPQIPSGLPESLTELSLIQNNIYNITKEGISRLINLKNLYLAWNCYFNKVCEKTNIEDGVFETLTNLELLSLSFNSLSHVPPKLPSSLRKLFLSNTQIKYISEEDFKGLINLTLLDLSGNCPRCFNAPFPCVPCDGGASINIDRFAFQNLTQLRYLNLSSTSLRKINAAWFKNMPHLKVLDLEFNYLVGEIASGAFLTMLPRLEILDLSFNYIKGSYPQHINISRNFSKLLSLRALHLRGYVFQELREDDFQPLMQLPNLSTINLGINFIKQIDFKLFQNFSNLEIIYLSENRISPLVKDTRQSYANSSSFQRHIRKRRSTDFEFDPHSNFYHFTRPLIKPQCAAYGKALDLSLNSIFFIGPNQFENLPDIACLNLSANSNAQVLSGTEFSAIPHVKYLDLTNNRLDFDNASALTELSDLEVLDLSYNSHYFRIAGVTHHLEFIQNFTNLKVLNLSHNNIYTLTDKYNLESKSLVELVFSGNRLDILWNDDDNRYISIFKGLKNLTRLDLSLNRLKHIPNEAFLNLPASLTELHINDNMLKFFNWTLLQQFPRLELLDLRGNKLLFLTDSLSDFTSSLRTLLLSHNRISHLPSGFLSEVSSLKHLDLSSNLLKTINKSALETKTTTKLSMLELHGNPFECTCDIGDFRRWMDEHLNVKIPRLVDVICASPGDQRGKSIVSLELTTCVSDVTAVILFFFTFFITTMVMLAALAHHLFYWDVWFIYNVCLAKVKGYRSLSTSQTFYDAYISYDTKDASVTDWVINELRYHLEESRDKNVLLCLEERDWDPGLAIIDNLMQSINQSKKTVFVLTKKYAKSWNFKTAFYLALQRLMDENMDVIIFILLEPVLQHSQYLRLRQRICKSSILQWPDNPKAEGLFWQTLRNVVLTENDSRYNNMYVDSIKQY

human TLR7 = human TLR7 (Homo sapiens (Human), UniProt Q9NYK1); assay: TLR7 inhibition reporter assay (HEK-Blue cells, SEAP reporter, gardiquimod stimulation); type: cell-based
Chain of human TLR7 (Q9NYK1 27-1049): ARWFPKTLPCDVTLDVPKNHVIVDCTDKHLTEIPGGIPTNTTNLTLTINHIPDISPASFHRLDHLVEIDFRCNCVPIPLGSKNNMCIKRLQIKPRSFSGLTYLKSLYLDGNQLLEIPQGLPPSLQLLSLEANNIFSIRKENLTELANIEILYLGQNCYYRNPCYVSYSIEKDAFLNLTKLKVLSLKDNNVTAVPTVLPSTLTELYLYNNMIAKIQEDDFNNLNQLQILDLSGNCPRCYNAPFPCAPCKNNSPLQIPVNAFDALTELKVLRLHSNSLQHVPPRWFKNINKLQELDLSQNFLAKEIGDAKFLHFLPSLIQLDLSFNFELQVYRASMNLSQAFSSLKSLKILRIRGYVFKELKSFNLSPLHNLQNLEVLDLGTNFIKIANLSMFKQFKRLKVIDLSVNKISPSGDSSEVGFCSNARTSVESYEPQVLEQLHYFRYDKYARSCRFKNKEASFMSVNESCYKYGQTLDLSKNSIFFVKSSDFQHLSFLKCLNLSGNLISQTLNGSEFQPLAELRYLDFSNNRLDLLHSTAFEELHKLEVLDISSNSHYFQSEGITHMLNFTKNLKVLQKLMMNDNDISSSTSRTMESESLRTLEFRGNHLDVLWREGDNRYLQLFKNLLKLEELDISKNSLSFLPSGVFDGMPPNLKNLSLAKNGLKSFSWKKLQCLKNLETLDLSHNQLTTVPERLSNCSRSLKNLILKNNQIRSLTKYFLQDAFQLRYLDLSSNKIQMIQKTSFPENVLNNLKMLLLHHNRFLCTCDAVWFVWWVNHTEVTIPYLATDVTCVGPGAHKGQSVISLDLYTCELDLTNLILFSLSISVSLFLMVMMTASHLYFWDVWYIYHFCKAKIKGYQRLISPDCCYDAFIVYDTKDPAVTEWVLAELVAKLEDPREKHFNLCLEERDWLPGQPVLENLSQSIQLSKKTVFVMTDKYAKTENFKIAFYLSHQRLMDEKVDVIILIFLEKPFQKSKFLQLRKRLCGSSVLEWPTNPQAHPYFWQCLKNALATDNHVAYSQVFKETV

[1] = TLR9 IC50, HEK-Blue cells overexpressing human TLR9, ODN2006 5 nM
[2] = TLR8 IC50, HEK-Blue cells overexpressing human TLR8, R848 15.9 μM
[3] = HEK-Blue cells overexpressing human TLR7, gardiquimod 7.5 μM
[4] = read-out: TLR9 IC50, HEK-Blue cells overexpressing human TLR9, ODN2006 5 nM
[5] = read-out: TLR8 IC50, HEK-Blue cells overexpressing human TLR8, R848 15.9 μM

| Structure (SMILES) | IC50 (human TLR9; [1]) [nM] | IC50 (human TLR8; [2]) [nM] | IC50 (human TLR7; [3]) [nM] | IC50 (human TLR9; [4]) [nM] | IC50 (human TLR8; [5]) [nM] | IC50 (human TLR9; read-out: TLR9 IC50, HEK-Blue cells, ODN2006 5 nM) [nM] | IC50 (human TLR8; read-out: TLR8 IC50, HEK-Blue cells, R848 15.9 μM) [nM] | IC50 (human TLR7; HEK-Blue cells, gardiquimod 7.5 μM) [nM] |
| --- | --- | --- | --- | --- | --- | --- | --- | --- |
| Cc1cc(-c2[nH]c3ccc(C4CCN(CC(=O)N5CC[C@H](O)C5)CC4)cc3c2C(C)C)cc(C)n1 [Example 273, (S)-2-(4-(2-(2,6-dimethylpyridin-4-yl)-3-isopropyl-1H-indol-5-yl)piperidin-1-yl)-1-(3-hydroxypyrrolidin-1-yl)ethan-1-one] | 66 | 5.4 | 1.5 |  |  |  |  |  |
| Cc1cc(-c2[nH]c3ccc(C4CCN(S(=O)(=O)c5ccc(Cl)cc5)CC4)cc3c2C(C)C)ccn1 [Example 542, 5-(1-((4-chlorophenyl)sulfonyl)piperidin-4-yl)-3-isopropyl-2-(2-methylpyridin-4-yl)-1H-indole] |  |  | 1160 | > 50000 | 1480 |  |  |  |
| Cc1cc(-c2[nH]c3ccc(C4CCN(CC(=O)N5CCCC5)CC4)cc3c2C(C)C)cc(C)n1 [Example 242, 2-(4-(2-(2,6-dimethylpyridin-4-yl)-3-isopropyl-1H-indol-5-yl)piperidin-1-yl)-1-(pyrrolidin-1-yl)ethan-1-one] |  |  | 5.2 | 1020 | 24.7 |  |  |  |
| Cc1cc(-c2[nH]c3ccc(C4CCN(C(=O)CN5CCC(F)(F)C5)CC4)cc3c2C(C)C)cc(C)n1 [Example 341, 2-(3,3-difluoropyrrolidin-1-yl)-1-(4-(2-(2,6-dimethylpyridin-4-yl)-3-isopropyl-1H-indol-5-yl)piperidin-1-yl)ethan-1-one] |  |  | 22.7 | 25400 | 211 |  |  |  |
| Cc1cc(-c2[nH]c3ccc(C4CCN(C(=O)C5CCNC5)CC4)cc3c2C(C)C)cc(C)n1 (single isomer, unassigned) [Example 181, (4-(2-(2,6-dimethylpyridin-4-yl)-3-isopropyl-1H-indol-5-yl)piperidin-1-yl)(pyrrolidin-3-yl) methanone] | 537 | 21.5 | 2.6 |  |  |  |  |  |
| CC(C)c1c(-c2ccnc(C(=O)NCC(F)(F)F)c2)[nH]c2ccc(C3CCNCC3)cc12 [Example 476, 4-(3-isopropyl-5-(piperidin-4-yl)-1H-indol-2-yl)-N-(2,2,2-trifluoroethyl) picolinamide] |  |  | 6070 | 3260 | 1040 |  |  |  |
| Cc1cc(-c2[nH]c3ccc(C4CCN(C(=O)CN(C)C)CC4)cc3c2C(C)C)c(F)cn1 [Example 586, 2-(dimethylamino)-1-(4-(2-(5-fluoro-2-methylpyridin-4-yl)-3-isopropyl-1H-indol-5-yl)piperidin-1-yl)ethan-1-one] |  |  | 2.6 | 3040 | 6.2 |  |  |  |
| Cc1cc(-c2[nH]c3ccc(C4CCN(C(=O)CN(C)Cc5cc(C)on5)CC4)cc3c2C(C)C)cc(C)n1 [Example 417, 1-(4-(2-(2,6-dimethylpyridin-4-yl)-3-isopropyl-1H-indol-5-yl)piperidin-1-yl)-2-(methyl((5-methylisoxazol-3-yl)methyl)amino)ethan-1-one] |  |  | 10.3 | 9380 | 72.3 |  |  |  |
| Cc1cc(-c2[nH]c3ccc(C4CCN(Cc5ncon5)CC4)cc3c2C(C)C)cc(C)n1 [Example 463, 3-((4-(2-(2,6-dimethylpyridin-4-yl)-3-isopropyl-1H-indol-5-yl)piperidin-1-yl)methyl)-1,2,4-oxadiazole] |  |  | 8.3 | 3360 | 17.7 |  |  |  |
| Cc1cc(-c2[nH]c3ccc(C4CCN(CC(=O)N5CCCC(C)(C)C5)CC4)cc3c2C(C)C)cc(C)n1 [Example 249, 1-(3,3-dimethylpiperidin-1-yl)-2-(4-(2-(2,6-dimethylpyridin-4-yl)-3-isopropyl-1H-indol-5-yl)piperidin-1-yl)ethan-1-one] |  |  | 15.4 | 973 | 36.3 |  |  |  |
| CCc1c(-c2ccnc(C)c2)[nH]c2ccc(C3CCN(C(=O)C4CNC4)CC3)cc12 [Example 630, azetidin-3-yl (4-(3-ethyl-2-(2-methylpyridin-4-yl)-1H-indol-5-yl)piperidin-1-yl)methanone] |  |  | 70.4 | 333 | 40.2 |  |  |  |
| Cc1cc(-c2[nH]c3ccc(C4CCN(C(=O)CNCCC(C)C)CC4)cc3c2C(C)C)cc(C)n1 [Example 393, 1-(4-(2-(2,6-dimethylpyridin-4-yl)-3-isopropyl-1H-indol-5-yl)piperidin-1-yl)-2-(isopentylamino)ethan-1-one] | 800 | 37.8 | 7.9 |  |  |  |  |  |
| Cc1cc(-c2[nH]c3ccc(C4CCN(C(=O)CCN(C)CCO)CC4)cc3c2C(C)C)cc(C)n1 [Example 175, 1-(4-(2-(2,6-dimethylpyridin-4-yl)-3-isopropyl-1H-indol-5-yl)piperidin-1-yl)-3-((2-hydroxyethyl)(methyl)amino)propan-1-one] |  |  | 1.5 | 213 | 7.1 |  |  |  |

Further lines, results first:

| IC50 (human TLR9; [1]) [nM] | IC50 (human TLR8; [2]) [nM] | IC50 (human TLR7; [3]) [nM] | IC50 (human TLR9; [4]) [nM] | IC50 (human TLR8; [5]) [nM] | IC50 (human TLR9; read-out: TLR9 IC50, HEK-Blue cells, ODN2006 5 nM) [nM] | IC50 (human TLR8; read-out: TLR8 IC50, HEK-Blue cells, R848 15.9 μM) [nM] | IC50 (human TLR7; HEK-Blue cells, gardiquimod 7.5 μM) [nM] | Structure (SMILES) |
| --- | --- | --- | --- | --- | --- | --- | --- | --- |
|  |  | 3.5 | 550 | 14.8 |  |  |  | Cc1cc(-c2[nH]c3ccc(C4CCN(C5CC(C)OC(C)C5)CC4)cc3c2C(C)C)ccn1 (stereo not drawn) [Example 713, 5-(1-(2,6-dimethyltetrahydro-2H-pyran-4-yl)piperidin-4-yl)-3-isopropyl-2-(2-methylpyridin-4-yl)-1H-indole] |
|  |  | 1.3 | 1750 | 4.2 |  |  |  | CNC(=O)CN1CCC(c2ccc3[nH]c(-c4cc(C)nc(C)c4F)c(C(C)C)c3c2)CC1 [Example 655, 2-(4-(2-(3-fluoro-2,6-dimethylpyridin-4-yl)-3-isopropyl-1H-indol-5-yl)piperidin-1-yl)-N-methylacetamide] |
|  |  | 21.9 | 708 | 6.2 |  |  |  | Cc1cc(-c2[nH]c3ccc(C4CCN(C5CCNCC5F)CC4)cc3c2C(C)C)ccn1 (stereo not drawn) [Example 705, 5-(3′-fluoro-[1,4′-bipiperidin]-4-yl)-3-isopropyl-2-(2-methylpyridin-4-yl)-1H-indole] |
|  |  |  |  |  | 15700 | 89.2 | 9.7 | Cc1cc(-c2[nH]c3ccc(C4CCN(C(=O)C(=O)NCCc5ccncc5)CC4)cc3c2C(C)C)cc(C)n1 [Example 860, 2-(4-(2-(2,6-dimethylpyridin-4-yl)-3-isopropyl-1H-indol-5-yl)piperidin-1-yl)-2-oxo-N-(2-(pyridin-4-yl)ethyl)acetamide] |
|  |  | 5.9 | 5680 | 5.3 |  |  |  | Cc1cc(-c2[nH]c3ccc(C4CCN(C(=O)CCN5CCOCC5)CC4)cc3c2C(C)C)c(F)cn1 [Example 657, 1-(4-(2-(5-fluoro-2-methylpyridin-4-yl)-3-isopropyl-1H-indol-5-yl)piperidin-1-yl)-3-morpholinopropan-1-one] |
|  |  | 51 | 2900 | 82.5 |  |  |  | COc1cc(-c2[nH]c3ccc(C4CCN(C5CCOCC5)CC4)cc3c2C(C)C)ccn1 [Example 720, 3-isopropyl-2-(2-methoxypyridin-4-yl)-5-(1-(tetrahydro-2H-pyran-4-yl)piperidin-4-yl)-1H-indole] |
|  |  | 19 | 1930 | 12.3 |  |  |  | Cc1cc(-c2[nH]c3ccc(C4CCN(CCC(F)(F)F)CC4)cc3c2C(C)C)ccn1 [Example 676, 3-isopropyl-2-(2-methylpyridin-4-yl)-5-(1-(3,3,3-trifluoropropyl)piperidin-4-yl)-1H-indole] |
|  |  | 167 | 729 | 185 |  |  |  | COc1cc(-c2[nH]c3ccc(C4CCN(C5CCNCC5)CC4)cc3c2C(C)C)ccn1 [Example 800, 5-([1,4′-bipiperidin]-4-yl)-3-isopropyl-2-(2-methoxypyridin-4-yl)-1H-indole] |
